Assay results as given in patent US9981916B2 (Genentech, Inc., priority 2013, dated 2018).

molecular target: T1, RORc ligand binding domain (Homo sapiens, UniProt P51449); experiment: In vitro RORc ligand binding assay (25-[3H]hydroxycholesterol displacement, filter binding); conditions: 6 nM 25-[3H]hydroxycholesterol, 0.6 ug/mL RORc receptor, 3 h at 25° C.
T1 construct: host or cells: E. coli
T1 sequence (P51449 269-508 limits assumed): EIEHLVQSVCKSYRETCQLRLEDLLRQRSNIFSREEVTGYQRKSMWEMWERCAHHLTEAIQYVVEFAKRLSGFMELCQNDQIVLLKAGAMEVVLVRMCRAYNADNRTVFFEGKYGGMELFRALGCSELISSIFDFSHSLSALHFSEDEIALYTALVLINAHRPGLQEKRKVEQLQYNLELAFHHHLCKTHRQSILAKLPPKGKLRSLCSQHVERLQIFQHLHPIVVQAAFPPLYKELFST
How it was run: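 Compounds in 5% DMSO, either dose-response or screened at 1 and 10 uM, competed with 6 nM 25-[3H]hydroxycholesterol for 0.6 ug/mL RORc over 3 h at 25° C (HEPES pH 7.4, NaCl, MgCl2, DTT, BSA buffer). Bound tracer was filter-harvested and counted; nonspecific binding came from 1 uM 25-hydroxycholesterol.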

Question: How did the IC50 turn out when `CC1(C)[C@@H]2CC[C@@]1(C(=O)N1CCC(F)(F)C1)c1nnc(-c3c(F)cccc3F)cc12` [Example 207, ((5S,8S)-3-(2,6-difluorophenyl)-9,9-dimethyl-5,6,7,8-tetrahydro-5,8-methanocinnolin-8-yl)(3,3-difluoropyrrolidin-1-yl)methanone] was run?
Answer: Its IC50 is 191 nM.

Question: With `CC1(C)[C@H]2CC[C@]1(c1nnc(C3CC3)o1)c1nnc(-c3c(F)cccc3F)cc12` [Example 123, (5R,8R)-3-(2,6-difluorophenyl)-9,9-dimethyl-8-(5-cyclopropyl-1,3,4-oxadiazol-2-yl)-5,6,7,8-tetrahydro-5,8-methanocinnoline] as the compound, how does the IC50 read?
Answer: Its IC50 is 109 nM.

Question: For `Cc1ccnc(C2CN(C(=O)[C@@]34CC[C@@H](c5cc(-c6ccccc6F)nnc53)C4(C)C)C2)n1` [Example 181, ((5R,8R)-3-(2-fluorophenyl)-9,9-dimethyl-5,6,7,8-tetrahydro-5,8-methanocinnolin-8-yl)(3-(4-methylpyrimidin-2-yl)azetidin-1-yl)methanone], which IC50 is on record?
Answer: The IC50 was 2750 nM.

Question: With `CC1(C)[C@@H]2CC[C@@]1(CN1CCN(CCN3CCOCC3)C1=O)c1nnc(-c3ccccc3F)cc12` [Example 48, 1-{[(5S,8R)-3-(2-fluorophenyl)-9,9-dimethyl-6,7-dihydro-5,8-methanocinnolin-8(5H)-yl]methyl}-3-[2-(morpholin-4-yl)ethyl]imidazolidin-2-one] as the compound, how does the IC50 read?
Answer: The IC50 was 643 nM.

Question: With `CC1(C)[C@H]2CC[C@]1(C(=O)NCCO)c1nnc(-c3ccccc3F)cc12` [Example 176, (5R,8R)-3-(2-fluorophenyl)-N-(2-hydroxyethyl)-9,9-dimethyl-5,6,7,8-tetrahydro-5,8-methanocinnoline-8-carboxamide] as the compound, how does the IC50 read?
Answer: Its IC50 is 2670 nM.

Question: With `CC1(C)[C@@H]2CC[C@@]1(C(=O)N1CCC1)c1nnc(-c3c(F)cccc3F)cc12` [Example 49, azetidin-1-yl[(5S,8S)-3-(2,6-difluorophenyl)-9,9-dimethyl-6,7-dihydro-5,8-methanocinnolin-8(5H)-yl]methanone] as the compound, how does the IC50 read?
Answer: The IC50 was 44 nM.

Question: For `CC1(C)[C@H]2CC[C@]1(CNCCC#N)c1nnc(-c3c(F)cccc3F)cc12` [Example 309, 3-((((5R,8S)-3-(2,6-difluorophenyl)-9,9-dimethyl-5,6,7,8-tetrahydro-5,8-methanocinnolin-8-yl)methyl)amino) propanenitrite], which IC50 is on record?
Answer: Its IC50 is 590 nM.

Question: For `CC1(C)[C@H]2CC[C@]1(CN1CCCC1=O)c1nnc(-c3c(F)cccc3F)cc12` [Example 273, 1-(((5R,8S)-3-(2,6-difluorophenyl)-9,9-dimethyl-5,6,7,8-tetrahydro-5,8-methanocinnolin-8-yl)methyl)pyrrolidin-2-one], which IC50 is on record?
Answer: Its IC50 is 453 nM.

Question: For `CN1C[C@@H]2C[C@H]1CN2C(=O)[C@]12CC[C@H](c3cc(-c4c(F)cccc4F)nnc31)C2(C)C` [Example 239, ((5S,8S)-3-(2,6-difluorophenyl)-9,9-dimethyl-5,6,7,8-tetrahydro-5,8-methanocinnolin-8-yl)((1S,4S)-5-methyl-2,5-diazabicyclo[2.2.1]heptan-2-yl)methanone], which IC50 is on record?
Answer: The IC50 was 892 nM.

Question: How did the IC50 turn out when `Cc1noc(C[C@]23CC[C@H](c4cc(-c5ccccc5F)nnc42)C3(C)C)n1` [Example 42, (5S,8S)-3-(2-fluorophenyl)-9,9-dimethyl-8-[(3-methyl-yl)methyl]-5,6,7,8-tetrahydro-5,8-methanocinnoline] was run?
Answer: The IC50 was 238 nM.

Question: `CCc1nnc([C@@]23CC[C@@H](c4cc(-c5c(F)cccc5F)nnc42)C3(C)C)o1` [Example 122, (5R,8R)-3-(2,6-difluorophenyl)-9,9-dimethyl-8-(5-ethyl-1,3,4-oxadiazol-2-yl)-5,6,7,8-tetrahydro-5,8-methanocinnoline] was tested. Which IC50 did it give?
Answer: The IC50 was 17 nM.

Question: How did the IC50 turn out when `CC1(C)[C@H]2CC[C@]1(CN(CC(F)F)C(=O)CO)c1nnc(-c3c(F)cccc3F)cc12` [Example 308, N-(2,2-difluoroethyl)-N-(((5R,8S)-3-(2,6-difluorophenyl)-9,9-dimethyl-5,6,7,8-tetrahydro-5,8-methanocinnolin-8-yl)methyl)-2-hydroxyacetamide] was run?
Answer: Its IC50 is 22 nM.
